We go through 16 compounds from patent US7101915B1, “P-terphenyl compounds” (Shionogi & Co., Ltd., priority 1996, dated 2006).

≈ marks a conversion by molar mass, not a printed value.

What all share (format): cell-based
Assay [1] concerns C3H/HeN mouse splenocytes stimulated with Concanavalin A (Con A). The assay can be described thus: Suppressive effect on mitogenic activity of mouse splenocytes in vitro, Con A as mitogen (MTT). Conditions: Con A 5 μg/ml as mitogen, 3 days. As for the experimental part: (§1) Experiment 1 Suppressive Effect on a Mitogenic Activity of Mouse Splenocytes In Vitro
(§2) In 96-well microtiter plate 5×10^5 C3H/HeN mouse splenocytes suspended in 0.1 ml of 10% fetal bovine serum-fortified RPMI 1640 medium containing 2 mM of sodium bicarbonate, 50 units/ml of penicillin, 50 μg/ml of streptomycin and 5×10^−5 M of 2-mercaptoethanol were added. Then, 5 μg/ml of Concanavalin A (Con A) or 10 μg/ml of lipopolysaccharide (LPS) as a mitogen and the compound of a pre-determined concentration of the present invention were added to each well so that a final volume of each well reached 0.2 ml. Each compound of the present invention was dissolved in dimethylsulfoxide (DMSO) and diluted with the above RPMI 1640 medium to adjust the final concentration of 100 ng/ml or less. The splenocytes in the 96-well microtiter plate were cultivated at 37° C. for 3 days in an incubator keeping the humidity 100%, carbon dioxide 5% and air 95%. Then, 25 μl of 6 mg/ml MTT [3-(4,5-dimethylthiazol-2-yl)-2,5-diphenyltetrazolium bromide] (Sigma) was added to the each well and cultivated at 37° C. for 4 hours under the same conditions. After the cultivation, 50 μl of 0.02 N hydrochloric acid in 20% sodium dodecyl sulfate (SDS) was added to formazan generated and left at 37° C. for 24 hours for dissolving formazan. An absorption intensity (OD) of formazan generated in proportion to the number of living cells was measured with an immunoreader (InterMed) equipped with a 570 nm filter (The Journal of Immunological Method, 65, 55-63, 1983). The 50% inhibitory concentration of a cell proliferation (IC 50) was calculated from a correlation between the concentration of the compound of the present invention and the absorption intensity.

Assay [2] has as its system C3H/HeN mouse splenocytes stimulated with lipopolysaccharide (LPS). Briefly: Suppressive effect on mitogenic activity of mouse splenocytes in vitro, LPS as mitogen (MTT). Conditions: LPS 10 μg/ml as mitogen, 3 days. As for the experimental part: as §1, §2
For assay [3], the system named is mouse thymoma strain EL4 cells. Briefly: Anti-proliferative activity on EL4 cells (MTT). Conditions: 3 days. The method, then: Experiment 2 Anti-Proliferative Activity on EL4 Cells
In 96-well microtiter plate 4×10^4/0.1 ml of mouse thymoma strain EL4 cells were added and 0.1 ml of the compound of the present invention was added to the mixture so that the concentration was in the range of 0-5,000 ng/ml. After the cultivation for 3 days, the IC50 was calculated by the MTT method as described in Experiment 1.

Assay [4] concerns IL-2 production of mouse T cell strain EL-4 (TPA). Briefly: Suppressive effect on the cytokine production of mouse T cell strain EL-4: IL-2. As to conditions: EL-4, TPA 10 ng/ml, 24 hours, ELISA. The method, then:
(§3) Experiment 8 Suppressive Effect on the Cytokine Production of a Mouse T Cell Strain EL-4 In 48-well plate were added 2×10^5 mouse T cell strain EL-4 which were suspended in 0.2 ml of 1% fetal bovine serum-added RPMI 1640 medium (2 mM of sodium bicarbonate, 50 units/ml of penicillin, 50 μg/ml of streptomycin and 5×10^−5 M of 2-mercaptoethanol were added) and the compound of the present invention of a predetermined concentration. TPA was added as a cell stimulater at a final concentration of 10 ng/ml to adjust a final volume of each well to 0.4 ml. Each compound of the present invention was dissolved in DMSO and diluted with the above RPMI 1640 medium, and then for added at a final concentration of 100 ng/ml or less. The cells in the 48-well plate were cultivated in an incubator keeping the humidity 100%, carbon dioxide 5% and air 95% at 37° C. for 24 hours to collect a supernatant of each well. The amount of IL-2, IL-4 and IL-5 released in the medium of each well were measured with the ELISA kit (Amersham K. K.) to be taken as an index of the cytokine production of the cells. TPA free group (-TPA) was used as a control.

In assay [5] the test system is IL-4 production of mouse T cell strain EL-4 (TPA). Briefly: Suppressive effect on the cytokine production of mouse T cell strain EL-4: IL-4. As to conditions: EL-4, TPA 10 ng/ml, 24 hours, ELISA. As for the experimental part: as §3
In assay [6] the test system is IL-5 production of mouse T cell strain EL-4 (TPA). Briefly: Suppressive effect on the cytokine production of mouse T cell strain EL-4: IL-5. As to conditions: EL-4, TPA 10 ng/ml, 24 hours, ELISA. The method, then:
as §3
(In general: In an ELISA, binding on a coated surface is turned into a signal by an enzyme label.)

Regarding `COc1cc(-c2ccc(OCc3ccccc3)c(N)c2)c(OC)cc1-c1ccc(OS(C)(=O)=O)cc1` [Compound I-418], the “ConA IC50” value in assay [1] stood at 0.255 µg/mL. Further, the “LPS IC50” value in assay [2] came to 0.497 µg/mL. Besides, in assay [3], the “EL-4 IC50” value is over 10 µg/mL.
Taken in the same sequence, the figures for `COc1cc(-c2ccc(O)cc2)c(OC)c(CO)c1-c1ccc(OCC=C(C)C)c(OS(C)(=O)=O)c1` [Compound I-12] were 0.0013 µg/mL, 0.0028 µg/mL and 0.0462 µg/mL.
In general, IC50 refers to the concentration at which inhibition is half-maximal. `COc1cc(-c2c(O)c(OC)c(-c3ccc(O)cc3)c(F)c2OC)ccc1OCC=C(C)C` [Compound I-1107]: the 50% inhibitory concentration (IC50) in assay [1] (Mus musculus, Splenocyte, 72 h, read-out: ConA IC50) came out at 0.0058 µg/mL (≈ 0.0128 µM); in assay [2] (Mus musculus, Splenocyte, 72 h) it was 0.0091 µg/mL (≈ 0.02 µM); in assay [3] (Mus musculus, 72 h, read-out: EL-4 IC50), 0.0341 µg/mL (≈ 0.075 µM).
On to `COc1cc(-c2ccc(O)cc2)c(OC)c(O)c1-c1ccc(OC/C=C/Br)c(O)c1` [Compound I-103], for which the “ConA IC50” value in assay [1] was 0.0034 µg/mL. For the same compound, in assay [2], the “LPS IC50” value was determined as 0.0037 µg/mL. The “EL-4 IC50” value in assay [3] is 0.0046 µg/mL.
Taken in the same sequence, the figures for `COc1cc(-c2ccc(N(C)C)cc2)c(OC)c(O)c1-c1ccc(OCc2ccc(C)cc2)c(O)c1` [Compound I-256] were under 0.02 µg/mL, 0.0287 µg/mL and 0.31 µg/mL.
Taken in the same sequence, the figures for `COc1cc(-c2ccc(O)cc2)c(OC)c(C)c1-c1ccc(OCC=C(C)C)c(O)c1` [Compound I-106] were 0.0006 µg/mL, 0.0004 µg/mL and 0.0027 µg/mL.
On the same counts, the results for `C/C=C\COc1ccc(-c2c(OC)cc(-c3ccc(O)cc3)c(OC)c2O)cc1O` [Compound I-173] are under 0.02 µg/mL, under 0.02 µg/mL and under 0.02 µg/mL.
Take `COc1cc(-c2c(OC)cc(-c3ccc(OS(C)(=O)=O)cc3)c(OC)c2OS(C)(=O)=O)ccc1OCC=C(C)C` [Compound I-248]: the “ConA IC50” value in assay [1] is under 0.01 µg/mL. In addition, in assay [2], the “LPS IC50” value is under 0.01 µg/mL. In assay [3], the “EL-4 IC50” value is 0.312 µg/mL.
Consider `COc1cc(-c2ccc(O)cc2)c(OC)c(O)c1-c1ccc(OCC=C(C)Cl)c(O)c1` [Compound I-41], for which, in assay [1], the “ConA IC50” value is 0.00073 µg/mL. The “LPS IC50” value in assay [2] was found to be 0.00174 µg/mL. Besides, the “EL-4 IC50” value in assay [3] is 0.00489 µg/mL.
On the same counts, the results for `COc1cc(-c2ccc(C(C)C)cc2)c(OC)c(OS(C)(=O)=O)c1-c1ccc(OCc2ccccc2)c(O)c1` [Compound I-361] are under 0.02 µg/mL, under 0.02 µg/mL and 0.124 µg/mL.
Taken in the same sequence, the figures for `COc1cc(-c2ccc(OCc3ccccc3)c(O)c2)c(OC)cc1-c1ccc(OCc2ccccc2)c(O)c1` [Compound I-63] were 0.013 µg/mL, 0.027 µg/mL and 0.016 µg/mL.
On the same counts, the results for `C/C=C\COc1ccc(-c2c(OC)cc(-c3ccc(O)cc3)c(OC)c2O)cc1O` [Compound I-50] are 0.00383 µg/mL, 0.0092 µg/mL and 0.0119 µg/mL.
On to `COc1cc(-c2c(OC)cc(-c3ccc(O)cc3)c(OC)c2CO)ccc1OCC=C(C)C` [Compound I-513], for which the “ConA IC50” value in assay [1] amounted to 0.00689 µg/mL. In addition, the “LPS IC50” value in assay [2] amounted to 0.0111 µg/mL. Moreover, the “EL-4 IC50” value in assay [3] worked out at 0.0618 µg/mL.
Taken in the same sequence, the figures for `CC/C=C\COc1ccc(-c2c(OC)cc(-c3ccc(O)cc3)c(OC)c2O)cc1O` [Compound I-9] were under 0.02 µg/mL, under 0.02 µg/mL and under 0.02 µg/mL.
As for `COc1cc(-c2ccc(F)cc2)c(OC)c(C=O)c1-c1ccc(OCC=C(C)C)c(F)c1` [Compound I-379], the “IC50 IL-2” value in assay [4] is over 1 µg/mL. In assay [5], the “IC50 IL-4” value stood at 0.088 µg/mL (≈ 0.201 µM). For the same compound, the “IC50 IL-5” value in assay [6] is over 1 µg/mL.
As for `COc1cc(-c2ccc(OS(C)(=O)=O)cc2)c(OC)c(OS(C)(=O)=O)c1-c1ccc(OCc2c(C)cc(C)cc2C)c(OS(C)(=O)=O)c1` [Compound I-202], in assay [4], the “IC50 IL-2” value was over 2 µg/mL. In addition, in assay [5], the “IC50 IL-4” value is under 0.02 µg/mL. The “IC50 IL-5” value in assay [6] is under 0.02 µg/mL.
